Source: ChEMBL document CHEMBL3507680, “University of Dundee, Gates Library screen for HepG2 cell viability”

Assay: Human HepG2 cell viability assay in 384 well format
Type: toxicity, cell-based
Parameters: dose 125 nL, time 70.5 hour; cytotoxicity at 70.5 h: concentration not given beside the values
Conditions: HepG2 cells, read-out: Inhibition

Compound	cytotoxicity at 70.5 h
O=c1[nH]ncn1-c1cccc(C(F)(F)F)c1	1.41%
CC(=O)Cn1ncc(N2CCOCC2)cc1=O	-0.483%
O=C(NC[C@H]1OC[C@@H]2CCN(C(=O)c3ccco3)C[C@@H]21)C1CC1	-6.37%
CC(C)CC(=O)N1CCCn2cnc(CN3CCCC3=O)c2C1	-4.92%
CNC(=O)c1cc2c(nc1NC(C)C)CCN(C(=O)NC(C)C)CC2	-10.9%
Cc1nccc([C@@H]2C[C@@H]3CCN(S(C)(=O)=O)C[C@H]3O2)n1	-10%
Cc1noc(C2CCC3(CCN(C(=O)c4c(C)noc4C)CC3)O2)n1 (configuration not stated)	-5.47%
O=C1CCCN1Cc1ncn2c1CN(C(=O)c1cccc(F)c1)CCC2	-13.4%
O=C(O)c1ccccc1-n1cc(CN2CCC(c3cc[nH]n3)C2)cn1 (configuration not stated)	-2.77%
CN(C)CC(=O)N1CCCC1c1ccccn1 (configuration not stated)	-3.81%
Cc1ccc(C2CCCN(S(C)(=O)=O)C2)nc1 (configuration not stated)	-2.08%
COCCC(=O)N1CCCC1c1nc(C)c2c(n1)N(C)C(=O)CC2 (configuration not stated)	-3.97%
Cc1nccc(C2CCCN(S(=O)(=O)N3CCOCC3)C2)n1 (configuration not stated)	19.2%
Cc1cccc(-c2nccnc2C2CCN(C)CC2)c1C	0.0925%
CN1CCN(c2ncccn2)CC1C(N)=O (configuration not stated)	36.7%
Cc1cccc(CNC(=O)CC2CCN(C(=O)C(C)C)CC2)n1	6.37%
CC(C)Nc1n[nH]c2nc(C3CCN(C(=O)c4ccccn4)C3)ccc12 (configuration not stated)	8.59%
CN(C)S(=O)(=O)N1CC(c2ccnc(Nc3ccccn3)n2)C1	-5.03%
Cn1cc(CN2CCCCC2c2ccc(-c3cnn(C)c3)nc2)cn1 (configuration not stated)	-8.29%
CN(C)c1nccc(C2CN(S(C)(=O)=O)C2)n1	-1.11%
Cc1csc(Nc2cc(C3CN(c4ccncn4)C3)nc(C)n2)n1	-8.67%

Compound	cytotoxicity at 70.5 h
O=C(NCC1CCOCC1)c1cc(-c2cccnc2)c2cnccc2n1	-8.58%
CCCn1ncc(C(=O)NC(C)c2c(C)nn(CC)c2C)c1C (configuration not stated)	-8.47%
COCC(=O)NCc1cnc(C)nc1-c1cn(C)c2ccc(OC)cc12	-7.48%
COc1ccccc1N1CC(NC(=O)Cn2cc(C(C)C)nn2)CC1=O (configuration not stated)	-9.11%
CCNC(=O)C1(Cc2cc(-c3ccccc3)no2)CCCN(C(C)=O)C1 (configuration not stated)	10.5%
Cc1cc(C)n(C2CCN(S(=O)(=O)N3CCOCC3)CC2)n1	-6.85%
Cc1cc(-c2nccs2)nc(C2CCN(Cc3ccccn3)CC2)n1	-3.72%
COCCNc1ncc(-c2cccc(OC)c2)c(-c2nccn2C)n1	-7.42%
CNc1cnc(CC2COCCN(Cc3ccccc3)C2)cn1 (configuration not stated)	-2.53%
CNc1cnc(CC2COCCN(Cc3cccc(C)n3)C2)cn1 (configuration not stated)	-2.94%
CNc1cc(C2CN(Cc3cccnc3NC)CCO2)nc(C)n1 (configuration not stated)	-2.49%
CNc1cnc(CC2COCCN(CCOc3ccccc3)C2)cn1 (configuration not stated)	-1.63%
COCCN1CCC1c1cc(NC2CCCC2)nc(C)n1 (configuration not stated)	-5.31%
O=c1[nH]cc(N2CCCCC2)c(=O)[nH]1	-3.72%
CNc1ncccc1CN1CCN(C)CC(C(=O)N(C)C)C1 (configuration not stated)	14.6%
CC(=O)N1CCCC(c2nc(N(C)C)ncc2-c2ccccc2)C1 (configuration not stated)	3.58%
CCN(CC)S(=O)(=O)N1C[C@@H](O)[C@H](Oc2cccc(F)c2)C1	-6.35%
CC(=O)Nc1ccc(S(=O)(=O)N2CCOC(Cn3ccnc3)C2)cc1 (configuration not stated)	-4.79%
O=S(=O)(c1ccccc1)N1CCOCC(Cc2cccnc2)C1 (configuration not stated)	-3.24%
COCCNC(=O)C1(CCCc2cccnc2)CCCN1C (configuration not stated)	13.5%
CNc1cccc(C2CCN(C(C)=O)CC2)n1	-5.62%

Compound	cytotoxicity at 70.5 h
CCC(=O)N1CCCC(c2nc(N(C)C)ncc2-c2ccc(F)cc2)C1 (configuration not stated)	3.25%
Cc1ncsc1C(=O)N1CCC(O)(Cn2c(C)cc3ccncc32)CC1	-0.305%
Cc1cc(C(=O)N2CCC(O)(Cn3c(C)cc4ccncc43)CC2)on1	-0.77%
CN1C[C@@H](C(=O)N2CCOCC2)[C@@]2(CCc3ccccc3C(=O)N2)C1	-1.75%
O=C(c1cccnc1)N1Cc2ccccc2OCC1Cn1ccnc1 (configuration not stated)	9.81%
Cc1csc2c(C3CCCN(C(=O)CCn4cncn4)C3)nc(C)n12 (configuration not stated)	1.05%
Cc1csc2c(C3CCCN(C(=O)CCn4ccnc4)C3)nc(C)n12 (configuration not stated)	17.3%
Cc1csc2c(C3CCCN(C(=O)CCCn4cncn4)C3)nc(C)n12 (configuration not stated)	2.61%
CC(C(=O)N1CCCC1)n1nc(-c2cccs2)cc(N)c1=O (configuration not stated)	5.25%
CC(C(=O)N1CCOCC1)n1nc(-c2cccs2)cc(N)c1=O (configuration not stated)	2.02%
CCCn1nc(C)c(CN(CCN(C)C)Cc2ccccn2)c1C	12.9%
CCn1nc(C)c(CN(CCCN(C)C)Cc2ccccn2)c1C	21.3%
CN(C)c1ncc(I)c(C2CCCCN2C)n1 (configuration not stated)	-3.55%
Cn1cc(CN(Cc2ccccn2)Cc2ccccc2Cl)cn1	-1.3%
CN(C)Cc1cnc(C2CN(C(=O)c3ccccc3Cl)CCO2)[nH]1 (configuration not stated)	-1.46%
CN1C(=O)CC[C@@H]2N(C(=O)CCc3cccnc3)CCCC[C@@]21C	-1.68%
Cc1nn(C)cc1S(=O)(=O)N(C)[C@@H]1CCC[C@@H](n2ccnc2)[C@@H]1O	19.1%
CN1CCCC(Cc2nccnc2Cl)CC1 (configuration not stated)	-3.4%
CN([C@@H]1CCC[C@@H](n2ccnc2)[C@@H]1O)S(=O)(=O)c1cn(C)cn1	19.9%
COC1CCCOC12CCN(C(=O)c1ccc3[nH]nnc3c1)CC2 (configuration not stated)	-5.57%
O=c1c(Cc2ccccc2)c(O)ccn1Cc1cccs1	23.3%

Compound	cytotoxicity at 70.5 h
COc1ccc(SCC2CNc3nc4ccccc4c(=O)n32)cc1 (configuration not stated)	1.56%
O=c1c(Cc2ccccc2)c(O)ccn1CCc1ccccc1	-3.9%
CC(=O)c1ccc(-c2cc(C(F)(F)F)cc(N(C)C)n2)cc1	-7.82%
O=C(NC1CC1)c1cc(C(F)(F)F)cc(C(=O)NC2CC2)n1	23%
O=C(O)Cc1cn2cc(C(F)(F)F)ccc2n1	-10.8%
O=c1[nH]c2ncccc2n1C1CCCC1	-0.61%
CC(O)c1cn(Cc2cccc(C(F)(F)F)c2)nn1 (configuration not stated)	-4.44%
CC(O)c1cn(Cc2ccc(Cl)cc2Cl)nn1 (configuration not stated)	-7.31%
COc1ccc(CN2CCCCC2c2n[nH]cc2-c2cc(C)no2)cc1 (configuration not stated)	11%
CN(C)c1ncc2c(O)nc(C3CCNCC3)cc2n1	-6.95%
CN(C)c1ncc(I)c(C2CCCN2C)n1 (configuration not stated)	1.48%
CCc1nc(-c2ccnc(N3CCNCC3)n2)no1	-2.35%
CN(C)C(=O)N1CCOCC2(CCN(c3ccccn3)C2)C1 (configuration not stated)	-5.46%
CS(=O)(=O)N1CCOC2(CCCN(c3cnccn3)C2)C1 (configuration not stated)	-6.97%
CCOC[C@H]1CC[C@H]2[C@H](CCN2C(=O)c2ccncc2F)O1	-8.92%
CN(C)C(=O)N1CCOCC2(CCN(c3ncccn3)C2)C1 (configuration not stated)	-5.25%
CO[C@@H]1CN(Cc2scnc2C)[C@@H]2CCCO[C@@H]21	-4.62%
c1ccc(CN2C[C@@H]3CCCO[C@@H]3[C@H](Nc3ccccn3)C2)nc1	-7.21%
Cc1cc(C)nc(NCCC(=O)NCCn2ccnc2C)n1	3.01%
